Here are results for 30 molecules from PMC11594608, “Sulfonamide-Based Inhibition of the β-Carbonic Anhydrase from A. baumannii, a Multidrug-Resistant Bacterium” (International Journal of Molecular Sciences, 2024).

In the first experiment the target is T1, hCA I (Homo sapiens, UniProt P00915).
T1 construct: gene CA1
T1 sequence (P00915 2-261): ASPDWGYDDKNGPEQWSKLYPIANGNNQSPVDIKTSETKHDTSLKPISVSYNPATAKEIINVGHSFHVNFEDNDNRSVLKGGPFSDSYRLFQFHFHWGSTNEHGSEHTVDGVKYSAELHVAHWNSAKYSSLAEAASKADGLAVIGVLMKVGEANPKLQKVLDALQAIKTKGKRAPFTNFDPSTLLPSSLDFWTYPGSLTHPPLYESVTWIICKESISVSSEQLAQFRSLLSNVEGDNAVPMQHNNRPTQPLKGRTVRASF
Kind of experiment: stopped-flow CO2 hydrase assay. The class given is biochemical. The conditions noted are these: CO2 substrate, […] HEPES pH […] °C, […] min preincubation; read-out: KI (nM) ^a / CA I.
As to `NS(=O)(=O)c1cccc(S(N)(=O)=O)c1` [compound 3, 3], the Ki worked out at 79 nM.

Staying with this experiment, now noted: read-out: KI (nM) ^a / CA I.
For the molecule `Cc1ccc(S(N)(=O)=O)cc1` [compound 4, 4], the Ki is 78500 nM.

For a further experiment, the target named is T2, βAbauCA (CanB) (Acinetobacter baumannii, UniProt A0A7U3Y636).
T2 construct: gene AB57_1063; oligomer not determined here
T2 sequence (A0A7U3Y636 1-204): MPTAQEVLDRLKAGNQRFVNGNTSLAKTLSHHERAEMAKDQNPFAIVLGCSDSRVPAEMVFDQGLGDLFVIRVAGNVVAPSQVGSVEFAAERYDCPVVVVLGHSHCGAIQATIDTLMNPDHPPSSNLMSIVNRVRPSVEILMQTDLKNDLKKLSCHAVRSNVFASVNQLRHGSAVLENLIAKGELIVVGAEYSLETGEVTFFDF
Kind of experiment: stopped-flow CO2 hydrase assay. The class given is biochemical. The conditions noted are these: CO2 substrate, […] TRIS pH […] NaClO4, […] °C, […] min preincubation.
Molecule `NS(=O)(=O)c1ccc(CCO)cc1` [compound 17, 17] showed a Ki of 715 nM.
`Nc1ccc(S(=O)(=O)Nc2nnc(S(N)(=O)=O)s2)cc1` [compound 20, 20] came in with a Ki of 344 nM.
In turn, `CC1(C)O[C@@H]2[C@@H](CO[C@@]3(COS(N)(=O)=O)OC(C)(C)O[C@@H]23)O1` [TPM, topiramate] returned a Ki of 2770 nM.
As for `Nc1nnc(S(N)(=O)=O)s1` [compound 13, 13], the Ki turned out to be 444 nM.
`NS(=O)(=O)c1cc2c(cc1Cl)NCNS2(=O)=O` [HCT] showed a Ki of 875 nM.
In the case of `Nc1nccc(Nc2ccc(S(N)(=O)=O)cc2)n1` [compound 19, 19], the Ki was found to be 407 nM.
In the case of `NS(=O)(=O)c1ccc(C(=O)O)cc1` [compound 18, 18], the Ki came out at 547 nM.
Still for that read-out and setting: the figure for `NS(=O)(=O)c1cc(Cl)c(Cl)c(S(N)(=O)=O)c1` [DCP] is 472 nM; for `CCN[C@H]1C[C@H](C)S(=O)(=O)c2sc(S(N)(=O)=O)cc21` [DZA] it is 232 nM.
Same read-out and setting: the figure for `NS(=O)(=O)c1nnc(NS(=O)(=O)c2ccccc2)s1` [BZA, Benzolamide] is 113 nM; for `O=C1NS(=O)(=O)c2ccccc21` [SAC] it is 7490 nM.
`Nc1ccc(S(=O)(=O)NCc2ccc(S(N)(=O)=O)cc2)cc1` [compound 23, 23] showed a Ki of 317 nM.
`Cn1nc(S(N)(=O)=O)sc1=N` [compound 14, 14]: the Ki worked out at 604 nM.
The same measure, in the same setting: under `Nc1cc(C(F)(F)F)c(S(N)(=O)=O)cc1S(N)(=O)=O` [compound 11, 11] stands 928 nM; under `Cc1onc(-c2ccccc2)c1-c1ccc(S(N)(=O)=O)cc1` [VLX], 215 nM.
In the case of `CCN[C@H]1CN(CCCOC)S(=O)(=O)c2sc(S(N)(=O)=O)cc21` [BRZ, Brinzolamide], the Ki came to 170 nM.
Molecule `CCN1CCCC1CNC(=O)c1cc(S(N)(=O)=O)ccc1OC` (stereo not shown) [SLP] gave a Ki of 6860 nM.
Consider `CC(=O)N=c1sc(S(N)(=O)=O)nn1C` [MZA], for which the Ki came out at 249 nM.
On the same count and under the same terms, the figure for `Cc1ccc(S(N)(=O)=O)cc1` [compound 4, 4] is 1480 nM; for `Nc1cc(Cl)c(S(N)(=O)=O)cc1S(N)(=O)=O` [compound 12, 12] it is 1200 nM; for `NS(=O)(=O)c1cc(Cl)cc(Cl)c1O` [compound 10, 10] it is 4160 nM.
`CC(=O)Nc1nnc(S(N)(=O)=O)s1` [AAZ, 5-acetamido-1,3,4-thiadia-zole-2-sulphonamide] gave a Ki of 191 nM.
As to `NS(=O)(=O)c1ccc(N2CCCCS2(=O)=O)cc1` [SLT], the Ki turned out to be 542 nM.
In the case of `NS(=O)(=O)Cc1noc2ccccc12` [ZNS], the Ki is 2340 nM.
For the molecule `Cc1ccc(-c2cc(C(F)(F)F)nn2-c2ccc(S(N)(=O)=O)cc2)cc1` [CLX], the Ki came out at 270 nM.
Molecule `Nc1ccc(S(=O)(=O)NCCc2ccc(S(N)(=O)=O)cc2)cc1` [compound 24, 24] had a Ki of 326 nM.
For `Nc1ccc(S(=O)(=O)Nc2ccc(S(N)(=O)=O)cc2)cc1` [compound 22, 22], the Ki was determined as 276 nM.
For `NS(=O)(=O)c1ccc(O)cc1` [compound 15, 15], the Ki came to 625 nM.
For `NS(=O)(=O)c1ccc(CO)cc1` [compound 16, 16], the Ki is 700 nM.
